Data reported in patent US20090076142A1, “USE OF THE IRRITATING PRINCIPAL OLEOCANTHAL IN OLIVE OIL, AS WELL AS STRUCTURALLY AND FUNCTIONALLY SIMILAR COMPOUNDS” (The Trustees of the University of Pennsylvania, priority 2005, published 2009).

Key:
ovine COX-1 = target: T1, ovine COX-1 (Ovis aries, UniProt P05979); experiment: Cyclooxygenase COX-1 inhibition assay (Cayman Chemicals kit); type: biochemical; conditions: for inhibition at 7 µM / inhibition at 25 µM / inhibition at 100 µM: mean ± SEM, three independent experiments, read-out: Percent inhibition of COX-1; for IC50: least squares regression analysis of inhibition vs. concentration, read-out: calculated IC50 for COX-1
T1 construct: purchased Cayman Chemicals
T1 sequence (P05979 25-600): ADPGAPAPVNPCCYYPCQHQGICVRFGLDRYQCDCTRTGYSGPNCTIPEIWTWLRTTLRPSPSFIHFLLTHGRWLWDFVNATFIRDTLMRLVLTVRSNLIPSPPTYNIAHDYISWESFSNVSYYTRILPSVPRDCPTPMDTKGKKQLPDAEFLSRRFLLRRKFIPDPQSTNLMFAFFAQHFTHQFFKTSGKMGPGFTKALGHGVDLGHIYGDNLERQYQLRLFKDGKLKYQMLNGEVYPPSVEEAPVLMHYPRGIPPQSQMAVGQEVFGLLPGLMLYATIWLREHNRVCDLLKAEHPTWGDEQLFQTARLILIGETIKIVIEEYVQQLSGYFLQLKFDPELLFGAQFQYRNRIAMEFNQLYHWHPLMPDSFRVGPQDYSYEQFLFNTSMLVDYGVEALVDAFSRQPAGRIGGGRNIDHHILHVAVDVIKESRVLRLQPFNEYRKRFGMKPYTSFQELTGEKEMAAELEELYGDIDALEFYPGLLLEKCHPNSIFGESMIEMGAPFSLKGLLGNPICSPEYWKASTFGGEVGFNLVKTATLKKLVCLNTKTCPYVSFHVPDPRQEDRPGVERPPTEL

human recombinant COX-2 = target: T2, human recombinant COX-2 (Homo sapiens, UniProt P35354); experiment: Cyclooxygenase COX-2 inhibition assay (Cayman Chemicals kit); type: biochemical; conditions: for inhibition at 7 µM / inhibition at 25 µM / inhibition at 100 µM: mean ± SEM, three independent experiments, read-out: Percent inhibition of COX-2; for IC50: least squares regression analysis of inhibition vs. concentration, read-out: calculated IC50 for COX-2
T2 construct: purchased Cayman Chemicals
T2 sequence (P35354 18-604): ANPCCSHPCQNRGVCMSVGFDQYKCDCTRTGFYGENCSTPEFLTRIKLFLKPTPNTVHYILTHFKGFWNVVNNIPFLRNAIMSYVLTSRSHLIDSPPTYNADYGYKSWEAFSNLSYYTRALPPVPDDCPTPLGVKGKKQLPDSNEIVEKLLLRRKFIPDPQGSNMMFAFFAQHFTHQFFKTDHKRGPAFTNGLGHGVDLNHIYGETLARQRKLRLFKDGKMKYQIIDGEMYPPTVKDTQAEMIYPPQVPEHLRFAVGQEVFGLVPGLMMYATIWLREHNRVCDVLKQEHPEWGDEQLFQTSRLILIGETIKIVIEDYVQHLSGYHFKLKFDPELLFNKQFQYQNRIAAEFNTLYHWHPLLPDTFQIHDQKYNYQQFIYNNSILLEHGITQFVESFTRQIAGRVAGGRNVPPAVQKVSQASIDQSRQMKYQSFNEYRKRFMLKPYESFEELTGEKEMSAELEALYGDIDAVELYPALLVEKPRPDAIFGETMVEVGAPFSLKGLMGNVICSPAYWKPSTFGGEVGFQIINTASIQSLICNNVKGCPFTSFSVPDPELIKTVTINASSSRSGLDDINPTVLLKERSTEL

soybean 15-lipoxygenase = target: T3, soybean 15-lipoxygenase (Glycine max, UniProt P08170); experiment: 15-lipoxygenase inhibition assay (Cayman Chemicals kit); type: biochemical; conditions: mean ± SEM, three independent experiments, read-out: Percent inhibition of 15-LO
T3 construct: purchased Cayman Chemicals
T3 sequence (P08170 1-839): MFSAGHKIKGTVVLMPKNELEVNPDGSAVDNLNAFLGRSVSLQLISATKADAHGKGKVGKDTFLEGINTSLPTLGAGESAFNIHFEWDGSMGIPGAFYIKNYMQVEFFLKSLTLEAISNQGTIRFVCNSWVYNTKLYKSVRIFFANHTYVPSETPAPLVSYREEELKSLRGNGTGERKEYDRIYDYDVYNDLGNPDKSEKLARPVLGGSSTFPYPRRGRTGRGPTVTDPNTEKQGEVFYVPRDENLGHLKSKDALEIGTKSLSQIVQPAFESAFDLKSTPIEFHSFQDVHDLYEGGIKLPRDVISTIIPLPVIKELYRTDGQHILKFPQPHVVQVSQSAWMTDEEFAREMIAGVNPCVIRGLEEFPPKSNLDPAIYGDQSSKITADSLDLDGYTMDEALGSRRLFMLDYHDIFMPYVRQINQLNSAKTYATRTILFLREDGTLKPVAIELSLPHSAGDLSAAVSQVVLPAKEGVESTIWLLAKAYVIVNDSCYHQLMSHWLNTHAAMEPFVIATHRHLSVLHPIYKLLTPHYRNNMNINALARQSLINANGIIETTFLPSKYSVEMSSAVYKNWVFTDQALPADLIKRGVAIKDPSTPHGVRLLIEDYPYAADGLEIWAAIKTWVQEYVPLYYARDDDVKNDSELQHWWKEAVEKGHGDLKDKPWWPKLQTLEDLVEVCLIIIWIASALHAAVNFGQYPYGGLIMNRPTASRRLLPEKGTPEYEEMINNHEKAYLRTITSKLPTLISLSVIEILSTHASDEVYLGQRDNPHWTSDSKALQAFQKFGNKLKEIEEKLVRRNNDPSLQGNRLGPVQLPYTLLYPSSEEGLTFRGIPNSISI

throat irritation = experiment: Throat irritation sensory test, two-alternative forced-choice, compound in corn oil; type: in vivo, human
Experimental: Testing was double-blind and each was exposed to three sets of two samples, one of which was added synthesized oleocanthal and the other served as the blank control. The task was to indicated which of the pair was more irritating. […] Importantly, the effect was dose dependent (FIG. 2 open triangles, dashed line). Ten subjects were tested with non-irritating commercial corn oils presented neat and mixed with either synthesized (−)-oleocanthal or the bitter agent sucrose octaacetate (SOA) (Sigma-Aldrich). […] (−)-Oleocanthal was tested at the highest concentration identified in the ten rated oils, 200 μg/ml, and at one half and whole log steps more dilute 63.25 and 20 μg/ml. SOA was added to the corn oil (4×10^−4, 1×10^−4, 5×10^−5 M) to intensity match the irritation of the three levels of (−)-oleocanthal. Subjects participated in two-alternative forced-choice (2AFC) trials (four trials at every concentration for each subject) and in intensity ratings sessions (four ratings per each oil). For the 2AFC trials subjects were presented with two 3.0 ml corn oil samples with matching intensities of SOA and (−)-oleocanthal in ascending order, and were required to sample oils as described above. While blind to stimulus position, subjects were asked two questions on each trial, “Which of the two oils was more irritating in the throat?” and “Which one was more bitter?” At the 20 μg/ml & 5×10^−5 M level most subjects reported on some trials that the same oil was both the more irritating and the more bitter of the two. […] Subjects performed at chance when selecting among two unadulterated corn oils, when the correct choice was randomly assigned prior to testing. […] The other two concentrations were correct 39/40 and 40/40 trials. For the intensity rating trials subjects were presented with all eight oils in ascending order, counterbalanced for stimulus order and asked to rate the throat irritation and bitterness of every oil on a general labeled magnitude scale.

inhibition at 7 µM (ovine COX-1) [%] | inhibition at 25 µM (ovine COX-1) [%] | inhibition at 100 µM (ovine COX-1) [%] | IC50 (ovine COX-1) [µM] | inhibition at 7 µM (human recombinant COX-2) [%] | inhibition at 25 µM (human recombinant COX-2) [%] | inhibition at 100 µM (human recombinant COX-2) [%] | IC50 (human recombinant COX-2) [µM] | inhibition at 7 µM (soybean 15-lipoxygenase) [%] | inhibition at 25 µM (soybean 15-lipoxygenase) [%] | inhibition at 100 µM (soybean 15-lipoxygenase) [%] | Compound | correct 2AFC trials (more irritating in the throat) (throat irritation; 20 μg/ml in corn oil vs SOA, ten subjects) | detection threshold level of throat irritation in corn oil (throat irritation; corn oil, ten subjects) [µg/mL] | throat irritation compared with oleocanthal isolated from premium olive oil (throat irritation; synthetic compound in corn oil) | correct identification of the more irritating sample (2AFC) (throat irritation; three evaluators, three presentations, corn oil, approximately twice the concentration found in Falconaro olive oil, p<0.01)
24.6 ± 7.5 | 54.5 ± 4.6 | 68 ± 15.2 | 27.9 | 6.1 ± 4.2 | 41.3 ± 15.9 | 69.6 ± 3.9 | 40.5 | 0 | 0.7 ± 1 | 3.5 ± 5.5 | CC=C(C=O)C(CC=O)CC(=O)OCCc1ccc(O)cc1 (single isomer, unassigned) [Oleocanthal (+)] |  |  |  | 
 |  |  |  |  |  |  |  | 19.8 ± 1.3 | 25.2 ± 2.2 |  | O=C(O)/C=C/c1ccc(O)c(O)c1 [Caffeic Acid, caffeic acid, reference compound] |  |  |  | 
 |  |  |  |  |  |  |  | 0.5 ± 0.1 | 0.1 ± 0.9 |  | COc1ccc2c(c1)c(CC(=O)O)c(C)n2C(=O)c1ccc(Cl)cc1 [Indomethacin, reference compound] |  |  |  | 
24.6 ± 7.3 | 56.1 ± 3.2 | 83.5 ± 3.5 | 21.4 | 14.5 ± 2.3 | 56.6 ± 9.5 | 70.9 ± 8.6 | 29.4 | 0 | 0 | 0.4 ± 0.8 | C/C=C(/C=O)[C@@H](CC=O)CC(=O)OCCc1ccc(O)cc1 [Oleocanthal (−), 2-(4-hydroxyphenyl)ethyl, 4-formyl-3-(2-oxoethyl)-4-hexenoic acid ester] | 24 out of 40 | ~20 | identical to oleocanthal isolated from premium olive oil | 9 of 9
